{"source": "patent US20250032425A1", "about": "“FIRST IN CLASS USE OF ESTROGEN RECEPTOR BETA AGONISTS IN TREATING ANGELMAN SYNDROME AND RELEVANT AUTISM SPECTRUM DISORDERS” (BROWN UNIVERSITY, priority 2023, published 2025)", "key": {"[1]": {"test_system": "ERK/MAPK signaling pathway", "assay": "ERK/MAPK and S6 activation in iOPCs by immunoblotting (phosphorylated to total ratio)", "assay_type": "cell-based, human", "excerpt": "FIGS. 20A-20E depict the identification of ESR-β signaling pathway in regulating OPC proliferation impaired by UBE3A depletion. FIG. 20A: Immunofluorescence to track estrogen receptor (ESR) expression in OPCs, by staining of all 3 ESRs, ESR-α, ESR-β and GPER (top panels), in iOPCs co-labeled with UBE3A (middle panels) and DAPI; scale bar, 100 μm. […] FIG. 20B: Immunoblotting to assess OPC expression of individual ESRs, by analyzing protein levels of ESR-α, ESR-β and GPER in iOPCs treated with siNC or siUBE3A, normalized to GAPDH and expressed relative to the siNC condition (set as 1.0). After treatment with siUBE3A, expression of ESR-β was decreased, while expression of GPER was increased. n=5-6 experiments. FIG. 20C: The activation of the ERK/MAPK signaling pathway in OPCs, particularly downstream of ESR-β, was analyzed in iOPCs subjected to 6 knockdown conditions: siNC, siUBE3A, siESRα, siESRβ, and combinations of siUBE3A with siESRα or siESRβ. These were followed by treatment with vehicle control or the ESR-β agonist AC-186 (10 μM, 30 min). The activation of ERK and its substrate S6 was determined by the ratio of phosphorylated to total ERK and S6 levels, adjusted relative to the vehicle control group (standard value of 1.0). ERK phosphorylation and S6 phosphorylation was decreased in cells treated with siESRβ, or siESRβ and siUBE3A combined. n=3 experiments. FIG. 20D: Immunoblotting to evaluate the role of ERK/MAPK activation in the restoration of OPC proliferation following ESR-β activation, with the addition of ERK phosphorylation inhibitors U0126 or PD98059 to UBE3A-depleted OPCs, with or without AC-186 co-treatment (10 μM. 24 hours). The quantification of Ki67 expression and UBE3A levels, being normalized to β-tubulin (TUBB1) and compared to the siNC condition (value of 1.0). n=5 experiments. FIG. 20E: A schematic depicting the regulatory role of ESR-β signaling pathway in OPC proliferation, identified by combining genetic knockdown techniques and pharmacological interventions. Activation of ESR-β selectively triggers the ERK/MAPK pathway, as shown by ERK phosphorylation and the ERK substrate S6 activation, essential for cell proliferation. […] As applicable: statistical significance was determined using One-way ANOVA followed by post-hoc comparisons, with selected comparisons presented. Significance levels marked as *p<0.05. ** p<0.005. *** p<0.001. **** p<0.0001, ns not significant, across relevant comparisons.\nThe siRNAs targeting UBE3A (Thermo Fisher, #4390815 and #4390816), estrogen receptors (Thermo Scientific #145909 for ESRβ, #145539 for ESRα, and #4390824 for GPER), and negative control (Thermo Scientific, #AM4615) were obtained commercially. The 10-20 nM final concentration was used with Lipofectamine RNAiMAX transfection reagent (Thermo Scientific #13778075) and incubated for at least 48 hours before the treatments of therapeutic compounds or other reagents.\nCells were collected by fast spin down in centrifuge tubes before lysis in RIPA buffer (ThermoFisher, #89901) supplemented with proteinase inhibitor cocktail (Sigma-Aldrich, #5892791001) on ice. Lysates were then spun down at 15000 rpm for 10 mins, the supernatant was collected and mixed with 4× Laemmle sample buffer (Bio-Rad, #1610747) and cooked 10 mins before SDS-PAGE and transferred with Bio-Rad fast transfer system, the membranes were blocked for one hour in 1× Tris Buffered Saline (TBS) with 1% Casein buffer (Bio-Rad, #1610782) and incubated with primary antibodies overnight at 4 degrees. After 3 times washing in TBST washing buffers (ThermoFisher, #28352), the membranes were incubated with HRP conjugated antibodies and developed with Clarity Max™ Western ECL Substrate (Bio-Rad, #1705062) before being filmed in the iBright imaging system."}, "[2]": {"test_system": "Angelman syndrome (AS) mice", "assay": "Fear conditioning test in AS mice", "assay_type": "in vivo, mouse", "method": "Animal handling and experimental use strictly followed NIH guidelines and protocols approved by the local Institutional Animal Care and Use Committee (IACUC) of Brown University. In all experiments, Mice were age and gender-matched. Multiple liters were used for all experiments. Weaned mice, housed in groups of two to four per cage, were maintained on a 12-h light/dark cycle with food and water ad libitum.\nESRβ agonist AC-186 treatment in vivo. 10 mg/kg AC-186 was daily IP delivered after dissolved at high concentration (30 mg/ml) in DMSO and further diluted in 20% PEG300. Vehicle groups received the same volume and concentration of diluted DMSO in 20% PEG300. Treatment started at P13 and continued until mice were sacrificed at P42.\nFor evaluating hippocampus-dependent memory, the protocol described in Lau and Yang, et al., 2023 for the fear conditioning test was followed. Mice were placed in an electrified and sound-attenuated chamber (Coulbourn Instruments, Allentown, PA) which was exposed to a scent (0.1% coconut) diluted in ethanol (70%) on day 1. Mice were habituated to the chamber for 3 min before undergoing three conditioning trials: a tone (5 kHz, 70 dB, 30 s) co-terminating with a foot shock (0.7 mA, 1 s). Conditioning trials were separated by a 30-second interval. Following conditioning, mice rested inside the chamber for 1.5 min before returning to their home cage. […]"}, "[3]": {"test_system": "UBE3A-deficient iOPCs and iOLs", "assay": "Oligodendrocyte differentiation of UBE3A-deficient iOPCs into iOLs (immunoblotting of Ki67, MAG, CNPase)", "assay_type": "cell-based, human", "settings": "AC-186 (10 µM)", "protocol": "FIG. 25C: Immunoblotting was conducted to assess the impact of UBE3A depletion on ESR-β expression during oligodendrocyte differentiation. Protein levels of ESR-β in UBE3A-deficient iOPCs and subsequently differentiated iOLs were quantified, normalized against the loading control GAPDH, and expressed relative to the iOPC+siNC control condition (set at 1.0). […] Levels of Ki67 and Myelin Associated Glycoprotein (MAG) were measured in UBE3A-deficient iOPCs and iOLs differentiated from them, normalized against GAPDH, and compared to the iOPC+siNC condition. n=4 experiments. FIG. 25E: Immunoblotting to examine the role of UBE3A for OPC self-renewal and oligodendrocyte differentiation across different developmental stages. Expression of maturation and myelination markers (MBP, MAG, PLP1, CNPase) was quantified following UBE3A depletion timed from iOPCs to pre-iOLs, normalized against TUBB1. and compared to the iOPC+siNC control condition (set at 1.0). n=4 experiments."}, "[4]": {"settings": "rodents and dogs; cited from earlier work"}, "[5]": {"settings": "UBE3A-depleted iOPCs, AC-186 10 μM, 30 min"}}, "note": "“Also recorded” adds a separate entry of the source."}
{"smiles": "Oc1ccc(C2(c3ccccc3F)CCC(F)(F)CC2)cc1", "note": "[AC-186]", "values": [{"measurement": "UBE3A levels", "setting": "[1]; [5]", "value": "remained unchanged"}, {"measurement": "activity of ERK", "setting": "[1]; [5]", "value": "restored"}, {"measurement": "activity of S6", "setting": "[1]; [5]", "value": "restored"}, {"measurement": "effects on ERK/MAPK activation when ESR-α was knocked down", "setting": "[1]; siESRα", "value": "did not reverse the effects of AC-186"}, {"measurement": "effects on ERK/MAPK activation when ESR-β was knocked down", "setting": "[1]; siESRβ", "value": "negated"}, {"measurement": "Contextual fear conditioning, percentage of time spent freezing", "setting": "[2]; AS mice, 10 mg/kg daily IP, vs AS vehicle, 10 mg/kg", "value": "ameliorated; also recorded: increased"}, {"measurement": "cued fear conditioning", "setting": "[2]; all four groups", "value": "no intergroup differences"}, {"measurement": "oligodendrocyte differentiation (MAG, CNPase) with treatment at various stages, FIG. 26C", "setting": "[3]; iOPC to pre-iOL to iOL stages", "value": "beneficial effects on differentiation were observed when administered during the iOPC stage"}, {"measurement": "oligodendrocyte differentiation (MAG), FIG. 25D", "setting": "[3]; UBE3A-deficient iOLs, clemastine (2.5 μM), 3 days", "value": "no impact on differentiation"}, {"measurement": "bioavailability", "setting": "[4]", "value": "satisfactory bioavailability; also recorded: effective bioavailability"}]}
